Converted amounts (≈) assume the structure as drawn.
Key:
[1] = tested on: T1, Pseudomonas aeruginosa CLB 24228; experiment: microbe, parasite or virus in culture; design: CLSI broth microdilution MIC in cation-adjusted Mueller Hinton broth, standard inoculum; settings: CLB24228, inoculum 5 x 10^5 CFU/mL, run 1
T1 construct: CLB 24228
Description: (§1) Each strain was tested at the standard inoculum of 5 × 10^5 colony forming units (CFU)/mL, as well as at inocula lower (5 × 10^4) and greater (5 × 10^6) than the standard inoculum. Antibacterial susceptibility testing for each P. aeruginosa isolate obtained from the four isolate sources listed above was performed using standard CLSI broth microdilution methodology using cation-adjusted Mueller Hinton broth.

[2] = tested on: T2, Pseudomonas aeruginosa ATCC 27853; experiment: microbe, parasite or virus in culture; design: CLSI broth microdilution MIC in cation-adjusted Mueller Hinton broth, standard inoculum; settings: ATCC27853, inoculum 5 x 10^5 CFU/mL, run 1
T2 construct: ATCC 27853
Description: as §1

With `C[C@@H](O)[C@H]1C(=O)N2C(C(=O)O)=C(SCCNC=N)C[C@H]12` [IMI, imipenem] the MIC [1] was 32 µg/mL (≈ 107 µM) and the MIC [2] was 2 µg/mL (≈ 6.68 µM).
